Assay results: ChEMBL document CHEMBL3751784, “Synthesis of novel 1-substituted triazole linked 1,2-benzothiazine 1,1-dioxido propenone derivatives as potent anti-inflammatory agents and inhibitors of monocyte-to-macrophage differentiation” (2015)
Activity calls are given as the source filed them. The rule behind the calls is not given here.

Columns and labels:
[1] = Antiinflammatory activity in human THP1 cells assessed as inhibition of PMA-induced TNFalpha secretion at 10 uM preincubated for 2 hrs followed by PMA addition measured after 48 hrs by ELISA; assay type: functional; details: THP-1
[2] = tested on: THP-1; test: (§1) Antiinflammatory activity in human THP1 cells assessed as inhibition of PMA-induced IL-1beta secretion at 10 uM preincubated for 2 hrs followed by PMA addition measured after 48 hrs by ELISA; assay type: functional
[3] = tested on: THP-1; test: (§2) Antiinflammatory activity in human THP1 cells assessed as inhibition of PMA-induced MCP-1 secretion at 10 uM preincubated for 2 hrs followed by PMA addition measured after 48 hrs by ELISA; assay type: functional
[4] = Cytotoxicity against human THP1 cells assessed as cell viability at 20 uM after 48 hrs by tryphan blue dye exclusion assay relative to control; assay type: functional; details: THP-1, 48 h, read-out: Activity
[5] = tested on: THP-1; test: Inhibition of PMA-induced MMP9 transcript level in human THP1 cells at 15 uM preincubated for 2 hrs followed by PMA addition measured after 24 hrs by RT-PCR analysis; assay type: functional, cell-based
[6] = tested on: THP-1; test: Inhibition of PMA-induced monocyte to macrophage differentiation in human THP1 cells assessed as reduction in MMP9 enzyme activity at 15 uM preincubated for 2 hrs followed by PMA addition measured after 48 hrs by gelatin zymographic analysis; assay type: functional, cell-based
[7] = tested on: THP-1; test: Inhibition of PMA-induced monocyte/macrophage invasion in human THP1 cells at 15 uM preincubated for 2 hrs followed by PMA addition measured after 48 hrs by collagen-coated Boyden chamber invasion assay; assay type: functional, cell-based
[8] = tested on: THP-1; test: Inhibition of PMA-induced monocyte to macrophage differentiation in human THP1 cells assessed as reduction in MMP2 enzyme activity at 15 uM preincubated for 2 hrs followed by PMA addition measured after 48 hrs by gelatin zymographic analysis; assay type: functional, cell-based
[9] = as §1; assay type: functional; details: THP-1
[10] = as §2; assay type: functional; details: THP-1
[11] = tested on: THP-1; test: Antiinflammatory activity in human THP1 cells assessed as inhibition of PMA-induced COX2 mRNA level preincubated for 2 hrs followed by PMA addition measured after 48 hrs by RT-PCR analysis; assay type: functional, cell-based
[12] = tested on: THP-1; test: Antiinflammatory activity in human THP1 cells assessed as inhibition of PMA-induced TNFalpha secretion preincubated for 2 hrs followed by PMA addition measured after 48 hrs by ELISA; assay type: functional, cell-based
[13] = tested on: THP-1; test: Antiinflammatory activity in human THP1 cells assessed as inhibition of PMA-induced IL-1beta secretion preincubated for 2 hrs followed by PMA addition measured after 48 hrs by ELISA; assay type: functional, cell-based
[14] = tested on: THP-1; test: Antiinflammatory activity in human THP1 cells assessed as inhibition of PMA-induced MCP-1 secretion preincubated for 2 hrs followed by PMA addition measured after 48 hrs by ELISA; assay type: functional, cell-based
[15] = tested on: THP-1; test: Inhibition of PMA-induced monocyte to macrophage differentiation in human THP1 cells assessed as reduction in cell adherence at 15 uM preincubated for 2 hrs followed by PMA addition measured after 48 hrs by phase contrast microscopic analysis; assay type: functional, cell-based
[16] = tested on: THP-1; test: Inhibition of PMA-induced monocyte to macrophage differentiation in human THP1 cells assessed as reduction in cell size at 15 uM preincubated for 2 hrs followed by PMA addition measured after 48 hrs by mitotracker dye-based confocal microscopic analysis; assay type: functional
[17] = tested on: THP-1; test: Inhibition of PMA-induced monocyte to macrophage differentiation in human THP1 cells assessed as reduction in LOX-1 transcript level at 15 uM preincubated for 2 hrs followed by PMA addition measured after 24 hrs by RT-PCR analysis; assay type: functional, cell-based
[18] = tested on: THP-1; test: Inhibition of PMA-induced monocyte to macrophage differentiation in human THP1 cells assessed as reduction in CD-36 transcript level at 15 uM preincubated for 2 hrs followed by PMA addition measured after 24 hrs by RT-PCR analysis; assay type: functional, cell-based
[19] = tested on: THP-1; test: Inhibition of PMA-induced monocyte to macrophage differentiation in human THP1 cells assessed as reduction in lysosomal activity at 15 uM preincubated for 2 hrs followed by PMA addition measured after 48 hrs by lysotracker dye-based fluorescence microscopic analysis; assay type: functional, cell-based
[20] = tested on: THP-1; test: Inhibition of PMA-induced MMP1 transcript level in human THP1 cells at 15 uM preincubated for 2 hrs followed by PMA addition measured after 24 hrs by RT-PCR analysis; assay type: functional, cell-based

In the case of `CN1C(C(=O)/C=C/c2cn(-c3cccc(F)c3)nn2)=C(O)c2ccccc2S1(=O)=O`, the inhibition at 10 µM [1] is reported as 48.3%, the inhibition [2] is reported as “inactive” and the inhibition [3] is reported as “inactive”. The viability at 20 µM [4] was 93%.

With `Cc1ccc(NC(=O)Cn2cc(/C=C/C(=O)C3=C(O)c4ccccc4S(=O)(=O)N3C)nn2)cc1` the inhibition [5] was “Active”, the inhibition [6] was “Active” and the inhibition [7] was “Active”. For the same molecule, the inhibition [8] was “inactive”, the inhibition at 10 µM [1] was 84.7% and the inhibition at 10 µM [9] was 74.9%. For the same molecule, the inhibition at 10 µM [10] was 87.2%, the viability at 20 µM [4] was 97% and the inhibition [11] was “Active”. The inhibition [12] was “Dose-dependent effect”, the inhibition [13] was “Dose-dependent effect” and the inhibition [14] was “Dose-dependent effect”. For the same molecule, the inhibition [15] was “Active”, the inhibition [16] was “Active” and the inhibition [17] was “Active”. For the same molecule, the inhibition [18] was “Active”, the inhibition [19] was “Active” and the inhibition [20] was “Active”.

With `CN1C(C(=O)/C=C/c2cn(CC(=O)Nc3cccc(Cl)c3)nn2)=C(O)c2ccccc2S1(=O)=O` the inhibition [5] was “Active”, the inhibition [6] was “Active” and the inhibition [7] was “Active”. The inhibition [8] was “inactive”, the inhibition at 10 µM [1] was 91.1% and the inhibition at 10 µM [9] was 80.4%. For the same molecule, the inhibition at 10 µM [10] was 84%, the viability at 20 µM [4] was 98.2% and the inhibition [11] was “Active”. The inhibition [12] was “Dose-dependent effect”, the inhibition [13] was “Dose-dependent effect” and the inhibition [14] was “Dose-dependent effect”. For the same molecule, the inhibition [15] was “Active”, the inhibition [16] was “Active” and the inhibition [17] was “Active”. The inhibition [18] was “Active”, the inhibition [19] was “Active” and the inhibition [20] was “Active”.

For `CN1C(C(=O)/C=C/c2cn(CC(=O)Nc3cccc(C(F)(F)F)c3)nn2)=C(O)c2ccccc2S1(=O)=O`, the inhibition [5] was “Active”, the inhibition [6] was “Active” and the inhibition [7] was “Active”. For the same molecule, the inhibition [8] was “inactive”, the inhibition at 10 µM [1] was 87.6% and the inhibition at 10 µM [9] was 83.6%. For the same molecule, the inhibition at 10 µM [10] was 85.1%, the viability at 20 µM [4] was 96.2% and the inhibition [11] was “Active”. For the same molecule, the inhibition [12] was “Dose-dependent effect”, the inhibition [13] was “Dose-dependent effect” and the inhibition [14] was “Dose-dependent effect”. The inhibition [15] was “Active”, the inhibition [16] was “Active” and the inhibition [17] was “Active”. For the same molecule, the inhibition [18] was “Active”, the inhibition [19] was “Active” and the inhibition [20] was “Active”.
